Earlier results as cited in patent US20180271924A1, “COMPOUND AND METHOD FOR REDUCING INFLAMMATION, PAIN, ALLERGY, FLU AND COLD SYMPTOMS” (priority 2018, published 2018).
Converted amounts (≈) assume the structure as drawn. Read-outs that look alike come from different tables or passages of the source.

What was measured:
[1] = extract 100-500 mg/kg; diclofenac 10-100 mg/kg; morphine 1-10 mg/kg
[2] = for time of peak analgesic effect: pseudoakuammigine 5.0 mg/kg p.o., morphine 1.0 mg/kg s.c., indomethacin 2.5 mg/kg p.o.
[3] = extract 100, 300, 500 mg/kg
[4] = mouse, in vivo
mast cells = settings: induced by compound 48/80
[5] = extract 100, 300, 500 mg/kg; remark: listed apart in the source
[6] = 20.0 mg/kg
[7] = test system: dividing and non-dividing cells
[8] = 0.5 mg/kg
[9] = human studies
[10] = not given; remark: listed apart in the source
[11] = extract 100, 300, 500 mg/kg; diazepam 0.1-1 mg/kg; caffeine 10, 30, 100 mg/kg
[12] = not given; remark: listed apart in the source
delta opioid receptor = biological target: T1, delta opioid receptor (Rattus norvegicus, UniProt P33533); settings: rat CNS membranes
T1 construct: membranes prepared from rat central nervous system; from tissue; host or cells: rat central nervous system membranes

ORL1-binding sites = ORL1-binding sites (Cavia porcellus, UniProt P47748)
ORL1 receptors = biological target: T2, ORL1 receptors (Cavia porcellus, UniProt P47748); settings: guinea pig small intestine
T2 construct: functional ORL1 receptors in the guinea pig small intestine; from tissue; host or cells: guinea pig small intestine

[13] = test system: mu-, delta- and kappa-opioid binding sites
mu receptors = biological target: T3, mu receptors (Rattus norvegicus, UniProt P33535); settings: rat CNS membranes
T3 construct: membranes prepared from rat central nervous system; from tissue; host or cells: rat central nervous system membranes

kappa receptors = biological target: T4, kappa receptors (Rattus norvegicus, UniProt P34975); settings: rat CNS membranes
T4 construct: membranes prepared from rat central nervous system; from tissue; host or cells: rat central nervous system membranes

mu-opioid binding sites = settings: corresponds to K value
[14] = extract 100, 300, 500 mg/kg; diclofenac 10, 30, 100 mg/kg; 20 minutes observation
[15] = not given; remark: listed apart in the source
[16] = not given; remark: listed apart in the source
[17] = extract 300, 500 mg/kg
[18] = DPPH
[19] = anesthetized rats; reversed by naloxone
[20] = not given; remark: listed apart in the source
[21] = mitragynine 2 mg/mL
[22] = not given; remark: listed apart in the source
[23] = 5 mg THC; for analgesic effect: 50 mg codeine
[24] = for pain relief, THC versus codeine: 36 cancer pain patients, 20 mg THC, 120 mg codeine
[25] = extract 100, 300, 500 mg/kg; diazepam 0.1-1 mg/kg
[26] = 200 mg/kg
[27] = 50 mg THC daily
[28] = subcutaneous

Chain of ORL1-binding sites (P47748 whole entry): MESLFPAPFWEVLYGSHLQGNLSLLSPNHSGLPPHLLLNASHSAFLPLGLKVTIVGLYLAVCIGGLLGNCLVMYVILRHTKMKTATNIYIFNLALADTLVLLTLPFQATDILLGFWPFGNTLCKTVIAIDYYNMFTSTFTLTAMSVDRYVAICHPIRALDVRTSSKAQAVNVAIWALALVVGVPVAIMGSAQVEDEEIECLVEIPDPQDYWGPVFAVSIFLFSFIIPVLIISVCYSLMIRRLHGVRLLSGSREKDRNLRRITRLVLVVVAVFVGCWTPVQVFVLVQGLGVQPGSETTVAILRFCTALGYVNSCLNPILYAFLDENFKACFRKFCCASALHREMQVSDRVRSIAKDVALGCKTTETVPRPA
T3 sequence (P33535 whole entry): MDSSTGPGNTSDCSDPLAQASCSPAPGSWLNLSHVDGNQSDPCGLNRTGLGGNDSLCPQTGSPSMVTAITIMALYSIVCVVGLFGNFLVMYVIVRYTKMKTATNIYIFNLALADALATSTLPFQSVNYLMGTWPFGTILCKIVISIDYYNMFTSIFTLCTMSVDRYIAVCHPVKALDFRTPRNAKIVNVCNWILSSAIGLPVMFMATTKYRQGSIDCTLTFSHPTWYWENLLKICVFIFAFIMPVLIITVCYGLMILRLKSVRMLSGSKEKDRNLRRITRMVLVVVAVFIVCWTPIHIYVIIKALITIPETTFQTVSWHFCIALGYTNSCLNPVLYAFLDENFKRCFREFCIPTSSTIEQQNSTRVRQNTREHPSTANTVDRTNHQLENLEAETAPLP
T1 sequence (P33533 whole entry): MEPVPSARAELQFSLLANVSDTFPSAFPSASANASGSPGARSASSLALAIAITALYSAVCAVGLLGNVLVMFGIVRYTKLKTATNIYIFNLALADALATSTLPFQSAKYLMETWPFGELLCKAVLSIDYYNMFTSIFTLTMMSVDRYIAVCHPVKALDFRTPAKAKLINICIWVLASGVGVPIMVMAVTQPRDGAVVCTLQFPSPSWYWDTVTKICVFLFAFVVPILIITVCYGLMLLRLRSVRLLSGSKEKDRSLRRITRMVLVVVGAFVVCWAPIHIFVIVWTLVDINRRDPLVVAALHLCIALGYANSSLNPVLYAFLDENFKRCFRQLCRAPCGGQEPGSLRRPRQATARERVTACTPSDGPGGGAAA
T4 sequence (P34975 whole entry): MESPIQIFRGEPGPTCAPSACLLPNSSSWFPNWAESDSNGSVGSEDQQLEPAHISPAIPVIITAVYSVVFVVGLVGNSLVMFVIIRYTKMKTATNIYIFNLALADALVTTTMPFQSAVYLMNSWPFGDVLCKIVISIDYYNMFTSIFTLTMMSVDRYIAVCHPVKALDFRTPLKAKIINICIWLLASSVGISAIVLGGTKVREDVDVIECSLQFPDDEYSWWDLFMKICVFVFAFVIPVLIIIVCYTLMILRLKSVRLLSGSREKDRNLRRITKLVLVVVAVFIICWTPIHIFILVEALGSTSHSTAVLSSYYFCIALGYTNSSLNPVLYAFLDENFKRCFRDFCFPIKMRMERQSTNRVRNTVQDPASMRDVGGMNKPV
T2 sequence (P47748 whole entry): as the sequence (P47748 whole entry) above

CN1CC[C@]23c4c5ccc(O)c4O[C@H]2[C@@H](O)C=C[C@H]3[C@H]1C5 [morphine, reference compound]
tail withdrawal latency / antinociceptive effect [1]: significant (P<0.0001) dose dependent increase in tail withdrawal latencies | ED50 (analgesic) ([2]; on molar basis): 2.9 muM | time of peak analgesic effect [2]: 30 min

COc1ccc2c3c1O[C@H]1[C@@H](O)CC[C@H]4[C@@H](C2)N(C)CC[C@@]341 [dihydrocodeine]
cough count [3]: dose-dependently reduced (P<0.05) cough count | latency of cough [3]: increased significantly (P<0.01) the latency of cough

CCCCCc1cc(O)c2c(c1)OC(C)(C)c1ccc(C)cc1-2 [CNB, cannabinol]
inhibition of PBQ-induced writhing (doses higher than 10 mg/kg): 40%

O=C(O)c1cc(=O)c2c(OCC(O)COc3cccc4oc(C(=O)O)cc(=O)c34)cccc2o1 [sodium cromoglicate]
tracheal phenol red secretion (muco-suppressant) [4]: caused a reduction (P<0.01) in tracheal phenol red secretion | mast cell degranulation (mast cells): reduce significantly (P<0.01) mast cell degranulation

CN1[C@@H]2CC[C@H]1C[C@@H](OC(=O)C(CO)c1ccccc1)C2 (stereo partly drawn) [Atropine]
protection against acetylcholine-induced bronchoconstriction and cough [5]: significantly (P<0.05-0.0001) protected

CN1CC[C@]2(c3cccc4c3N[C@@H]3N(C)CC[C@]43[C@@]34CCN(C)[C@@H]3Nc3ccccc34)c3ccccc3N[C@H]12 [hodgkinsine]
analgesic activity, hot-plate [6]: comparable with 6.0 mg/kg of morphine | cytotoxicity [7]: low cytotoxicity | analgesic activity, tail-flick [8]: comparable to that of 6.0 mg/kg of morphine

CCCCCc1cc(O)c2c(c1)OC(C)(C)[C@@H]1CCC(C)=C[C@@H]21 [Delta 1-THC]
dose of maximal effect in the PBQ test (oral): 10 mg/kg

CC(=O)Oc1cc(O[C@H](C)CCCc2ccccc2)cc2c1[C@@H]1C[C@H](O)CC[C@H]1[C@H](C)N2 [Levonantradol]
analgesia versus placebo [9]: superior to placebo | sedation [9]: almost half the patients reported sedation | pain relief versus placebo ([10]; 1.5, 2, 2.5, 3 mg intramuscular, 56 patients): all doses were significantly superior to placebo | patients reporting at least one side-effect ([10]; in vivo): 57%

Cn1c(=O)c2c(ncn2C)n(C)c1=O [caffeine]
effect in open arm test [11]: anxiogenic effect

C/C=C1/CN2CC[C@@]34c5cc(O)ccc5N(C)[C@]35OC[C@@]4(C(=O)OC)[C@H]1C[C@H]25 [akuammine]
solubility in water [12]: slightly soluble in water | affinity for delta opioid receptor relative to kappa and mu (delta opioid receptor): ten times lower | affinity for ORL1-binding sites (words) (ORL1-binding sites): neither akuammine nor any of the other alkaloids showed appreciable affinity | affinity for ORL1-binding sites (words) (ORL1-binding sites; listed as Akuammine): little affinity | antagonism of nociceptin at functional ORL1 receptors (ORL1 receptors): does not antagonize nociceptin | opioid binding (words) [13]: low affinity | affinity for mu receptors (mu receptors): micromolecular affinities | affinity for kappa receptors (kappa receptors): micromolecular affinities | character at opioid receptors (opioid receptors): opioid antagonist | affinity (mu-opioid binding sites): 2.1 mM⁻¹

O=C(O)Cc1ccccc1Nc1c(Cl)cccc1Cl [diclofenac]
tail withdrawal latency / antinociceptive effect [1]: increased tail withdrawal latencies | abdominal writhes [14]: suppressed the writhing

COc1ccc2c(c1)c(CC(=O)O)c(C)n2C(=O)c1ccc(Cl)cc1 [indomethacin, reference compound]
ED50 (analgesic) ([2]; on molar basis): 6.3 muM | time of peak analgesic effect [2]: 60 min

COc1ccc2cc3[n+](cc2c1OC)CCc1cc2c(cc1-3)OCO2 [Umbellatine, umbellatine]
analgesic activity, tail-flick ([15]; 100 mg/kg): clearly active | analgesic activity, tail-flick ([15]; 200 and 300 mg/kg): comparable in efficacy to those of 6 mg/kg of morphine | analgesic activity, hot plate ([16]; 10-300 mg/kg): dose-dependently active | analgesic activity, hot plate ([16]; 200 and 300 mg/kg): comparable in efficacy to that obtained with 6 mg/kg of morphine

COc1ccc(CN(CCN(C)C)c2ccccn2)cc1 [mepyramine]
histamine-induced bronchoconstriction and cough [17]: reduced significantly (P<0.01-0.0001) bronchoconstriction and cough induced by histamine

CCCCCc1cc(O)cc(O)c1 [olivetol]
dose of maximal effect in the PBQ test (oral): about 100 mg/kg

COC(=O)C1=CO[C@@H](C)[C@@H]2CN3CCc4c([nH]c5ccccc45)[C@H]3C[C@H]12 [akuammigine]
opioid binding (words) [13]: no opioid binding | opioid binding (words) ([13]; listed as Akuammigine): no affinity for any of the opioid binding sites

O=C1O[C@H]([C@@H](O)CO)C(O)=C1O [ascorbic acid]
EC50 (free radical scavenging) [18]: 1.07 µg/mL (≈ 6.08 µM)

CC[C@@H]1CN2CCc3c([nH]c4cccc(OC)c34)[C@@H]2C[C@@H]1/C(=C\OC)C(=O)OC [mitragynine]
gastric acid secretion [19]: inhibition of 2-deoxy-D-glucose-stimulated gastric acid secretion in a dose dependent manner | toxicity ([20]; dose levels of 800-900 mg/kg in rodents): no toxicity | lethality ([20]; oral 200 mg/kg, rats): lethal effects | nerve conduction, compound nerve action potential [21]: blocked the nerve conduction

C/C=C1/CN2CC[C@@]34c5ccccc5N(C)[C@]35OC[C@@]4(C(=O)OC)[C@H]1C[C@H]25 [pseudoakuammigine]
ED50 (analgesic) ([2]; on molar basis): 10 muM | times less potent than indomethacin as an analgesic ([2]; on molar basis): 1.6 times | times less potent than morphine as an analgesic ([2]; on molar basis): 3.5 times | time of peak analgesic effect [2]: 180 min | affinity for ORL1-binding sites (words) (ORL1-binding sites): little affinity | opioid binding (words) [13]: low affinity | opioid binding (words) ([13]; listed as Pseudoakuammigine): bound equally to both mu and delta-opioid binding sites | effect on electrically-induced contractions (opioid receptors; antagonised by naloxone): inhibited the electrically-induced contractions | maximal inhibitory effect (anti-inflammatory) ([22]; 50 mg kg, p.o.): 44% | activity on carrageenan-induced paw oedema ([22]; 1.0, 5.0, 50 mg/kg p.o.): dose-dependent inhibitory activity

COc1ccc2c3c1O[C@H]1[C@@H](O)C=C[C@H]4[C@@H](C2)N(C)CC[C@@]341 [codeine]
analgesic effect [23]: analgesic effect in comparison with placebo | pain relief, THC versus codeine [24]: equally effective

CN1C(=O)CN=C(c2ccccc2)c2cc(Cl)ccc21 [diazepam]
frequency of central zone entries [25]: dose dependently increased the frequency of central zone entries | effect in open arm test [11]: dose dependently and significantly increased the percentage of open arm entries

CC(=O)Oc1ccccc1C(=O)O [aspirin]
mean percentage antipyrexia [26]: 29.0%

CCCCCc1cc(O)c2c(c1)OC(C)(C)[C@@H]1CCC(C)=C[C@@H]21 [THC, delta-9-tetrahydrocannabinol]
effect on spasticity [23]: significant effect on spasticity | analgesic effect [23]: analgesic effect in comparison with placebo | analgesia versus placebo [9]: significantly superior to placebo | time of peak analgesia [9]: around 5 hours | pain relief versus placebo ([24]; 10 cancer pain patients, at doses of 15 and 20 mg): pain relief significantly superior to placebo | pain relief, THC versus codeine [24]: equally effective | morphine requirement [27]: morphine requirement was significantly reduced (P<0.01)

C=C(C)[C@@H]1CCC(C)=C[C@H]1c1c(O)cc(CCCCC)cc1O [CBD, cannabidiol]
effectiveness at inhibition of PBQ-induced writhing (oral, 100 mg/kg): most effective

CC[C@@H]1CN2CC[C@@]3(O)C(=Nc4cccc(OC)c43)[C@@H]2C[C@@H]1/C(=C\OC)C(=O)OC [7-hydroxymitragynine]
gastrointestinal transit [28]: inhibition of the gastrointestinal transit
